Results: article PMC3072440 (Chemical research in toxicology, 2010)
Like-named read-outs stand apart in the source and are kept apart here.

Assays:
human P450 2C9 [1] = target: T1, human P450 2C9 (Homo sapiens, UniProt P11712); experiment: Inhibition of P450 2C9-dependent flurbiprofen 4’-hydroxylation
human P450 3A4 [2] = target: T2, human P450 3A4 (Homo sapiens, UniProt P08684); experiment: Inhibition of P450 3A4-dependent midazolam 4-hydroxylation
human P450 1A1 = target: T3, human P450 1A1 (Homo sapiens, UniProt P04798); experiment: Inhibition of P450 1A1-dependent EROD activity; assay type: biochemical
T3 sequence (P04798 1-512): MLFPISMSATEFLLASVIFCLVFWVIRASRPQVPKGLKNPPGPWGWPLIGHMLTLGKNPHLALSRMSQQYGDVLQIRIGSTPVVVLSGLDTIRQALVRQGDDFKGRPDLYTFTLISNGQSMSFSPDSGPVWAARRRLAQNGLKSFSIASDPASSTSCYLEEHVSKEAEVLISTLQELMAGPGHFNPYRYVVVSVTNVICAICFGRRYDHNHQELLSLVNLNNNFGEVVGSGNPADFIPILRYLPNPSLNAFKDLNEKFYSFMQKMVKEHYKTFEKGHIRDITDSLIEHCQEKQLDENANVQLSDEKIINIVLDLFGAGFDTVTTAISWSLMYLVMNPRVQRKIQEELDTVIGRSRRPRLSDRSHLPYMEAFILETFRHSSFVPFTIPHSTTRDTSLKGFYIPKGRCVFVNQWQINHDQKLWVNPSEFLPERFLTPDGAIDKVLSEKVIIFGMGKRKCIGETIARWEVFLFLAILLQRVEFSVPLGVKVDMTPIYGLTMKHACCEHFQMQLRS

human P450 1B1 [3] = target: T4, human P450 1B1 (Homo sapiens, UniProt Q16678); experiment: Spectral binding titration with purified P450 1B1
T4 sequence (Q16678 1-543): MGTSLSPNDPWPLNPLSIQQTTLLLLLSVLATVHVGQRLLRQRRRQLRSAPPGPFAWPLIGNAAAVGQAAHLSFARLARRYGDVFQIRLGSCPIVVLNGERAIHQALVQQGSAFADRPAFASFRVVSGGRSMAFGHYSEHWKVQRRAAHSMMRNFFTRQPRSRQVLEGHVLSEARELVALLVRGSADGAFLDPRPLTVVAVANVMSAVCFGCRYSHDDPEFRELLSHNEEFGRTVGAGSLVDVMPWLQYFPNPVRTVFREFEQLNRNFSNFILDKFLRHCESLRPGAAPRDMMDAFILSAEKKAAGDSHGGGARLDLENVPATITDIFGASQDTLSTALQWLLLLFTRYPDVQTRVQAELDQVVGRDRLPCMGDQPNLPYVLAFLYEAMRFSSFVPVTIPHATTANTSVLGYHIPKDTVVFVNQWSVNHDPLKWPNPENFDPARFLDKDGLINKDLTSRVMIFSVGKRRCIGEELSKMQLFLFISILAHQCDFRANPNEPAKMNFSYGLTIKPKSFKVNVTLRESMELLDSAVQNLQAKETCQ

human P450 3A4 [4] = target: T2, human P450 3A4; experiment: Spectral binding titration with purified P450 3A4; conditions: for spectral change / Type I binding spectra with P450 3A4, in words: decreases in α and β bands monitored, up to 100 µM
human P450 1B1 [5] = target: T4, human P450 1B1; experiment: Inhibition of P450 1B1-dependent EROD activity; assay type: biochemical
human P450 1A2 [6] = target: T5, human P450 1A2 (Homo sapiens, UniProt P05177); experiment: Inhibition of P450 1A2-dependent EROD activity
T5 sequence (P05177 1-516): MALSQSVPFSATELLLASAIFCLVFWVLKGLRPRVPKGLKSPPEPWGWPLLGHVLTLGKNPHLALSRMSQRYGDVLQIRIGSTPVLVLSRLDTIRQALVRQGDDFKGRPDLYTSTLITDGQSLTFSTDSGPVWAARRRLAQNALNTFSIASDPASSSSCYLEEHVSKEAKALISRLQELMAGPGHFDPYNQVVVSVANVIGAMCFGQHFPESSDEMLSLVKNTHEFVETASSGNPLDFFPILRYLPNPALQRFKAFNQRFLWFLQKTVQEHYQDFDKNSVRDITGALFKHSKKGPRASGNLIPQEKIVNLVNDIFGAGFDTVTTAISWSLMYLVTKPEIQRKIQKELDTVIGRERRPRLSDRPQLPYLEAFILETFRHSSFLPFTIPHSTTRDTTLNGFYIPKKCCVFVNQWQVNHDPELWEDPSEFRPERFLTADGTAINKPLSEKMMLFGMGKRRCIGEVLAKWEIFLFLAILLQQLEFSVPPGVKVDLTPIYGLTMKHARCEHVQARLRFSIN

human P450 3A4 [7] = target: T2, human P450 3A4; experiment: Effect on P450 3A4-catalyzed midazolam 1’-hydroxylation
human P450 2C9 [8] = target: T1, human P450 2C9; experiment: Spectral binding titration with purified P450 2C9; conditions: concentrations up to 100 µM; results not shown
human P450 1A2 [9] = target: T5, human P450 1A2

T2 sequence (P08684 whole entry): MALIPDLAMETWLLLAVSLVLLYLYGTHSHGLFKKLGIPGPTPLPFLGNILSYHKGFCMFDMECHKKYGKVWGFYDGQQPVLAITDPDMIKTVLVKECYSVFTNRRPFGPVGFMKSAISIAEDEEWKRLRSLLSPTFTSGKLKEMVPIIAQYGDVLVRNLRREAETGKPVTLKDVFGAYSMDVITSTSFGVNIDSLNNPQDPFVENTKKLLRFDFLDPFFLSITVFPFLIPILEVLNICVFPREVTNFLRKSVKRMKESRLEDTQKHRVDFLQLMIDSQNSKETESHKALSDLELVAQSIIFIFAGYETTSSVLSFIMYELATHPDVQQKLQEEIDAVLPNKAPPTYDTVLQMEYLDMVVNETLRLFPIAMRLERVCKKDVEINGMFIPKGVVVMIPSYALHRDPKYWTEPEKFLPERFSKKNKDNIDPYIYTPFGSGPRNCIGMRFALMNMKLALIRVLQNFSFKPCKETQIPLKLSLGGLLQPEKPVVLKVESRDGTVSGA
T1 sequence (P11712 whole entry): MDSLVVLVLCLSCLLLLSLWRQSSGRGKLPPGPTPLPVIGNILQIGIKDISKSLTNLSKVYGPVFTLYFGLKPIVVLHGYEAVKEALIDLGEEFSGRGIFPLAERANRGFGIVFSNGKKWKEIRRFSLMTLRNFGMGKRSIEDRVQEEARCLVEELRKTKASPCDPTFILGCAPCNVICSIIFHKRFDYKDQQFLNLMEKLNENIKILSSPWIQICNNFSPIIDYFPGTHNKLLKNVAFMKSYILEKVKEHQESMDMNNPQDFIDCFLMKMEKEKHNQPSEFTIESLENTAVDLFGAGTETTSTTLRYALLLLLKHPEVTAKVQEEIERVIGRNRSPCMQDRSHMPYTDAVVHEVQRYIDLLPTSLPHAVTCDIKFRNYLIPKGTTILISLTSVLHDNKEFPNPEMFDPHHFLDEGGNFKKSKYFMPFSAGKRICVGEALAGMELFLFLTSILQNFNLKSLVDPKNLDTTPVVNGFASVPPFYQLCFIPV

COc1ccccc1-c1cc(=O)c2c(O)cc(O)cc2o1 [2’M57DHF, 2’-methoxy-5,7-dihydroxyflavone]
inhibition of P450 2C9 flurbiprofen 4’-hydroxylation, in words (human P450 2C9 [1]): strong inhibitors
IC50 (human P450 3A4 [2]): 2000 nM
IC50 (human P450 1A1): 1400 nM

COc1ccccc1-c1cc(=O)c2ccc(O)c(O)c2o1 [2’M78DHF, 2’-methoxy-7,8-dihydroxyflavone]
binding spectra with P450 1B1, in words (human P450 1B1 [3]): no binding spectra
binding spectra with P450 1B1, in words (human P450 1B1 [3]; listed as 2M78DHF): did not show spectra

COc1ccccc1-c1cc(=O)c2ccccc2o1 [2’MF, 2’-Methoxyflavone]
spectral change / Type I binding spectra with P450 3A4, in words (human P450 3A4 [4]): induced spectral changes
inhibition of P450 3A4 midazolam 4-hydroxylation, in words (human P450 3A4 [2]): not very effective inhibitors

COc1ccc(-c2cc(=O)c3ccc(O)c(O)c3o2)cc1OC [3’4’DM78DHF, 3’,4’-dimethoxy-7,8-dihydroxyflavone]
IC50 (human P450 1B1 [5]): > 100000 nM
IC50 (human P450 2C9 [1]): 25000 ± 4200 nM
IC50 (human P450 1A2 [6]): > 100000 nM
inhibition of P450 1A2 at 100 µM, in words (human P450 1A2 [6]; 100 µM concentration): did not inhibit
IC50 (human P450 3A4 [2]): > 100000 nM
inhibition of P450 3A4 at 100 µM, in words (human P450 3A4 [2]; 100 µM concentration): not inhibitory
IC50 (human P450 1A1): 41000 ± 10000 nM

COc1ccc(-c2cc(=O)c3ccccc3o2)cc1OC [3’4’DMF, 3’,4’-dimethoxyflavone]
inhibition of P450 3A4 midazolam 4-hydroxylation, in words (human P450 3A4 [2]): not very effective inhibitors

COc1cccc(-c2cc(=O)c3ccccc3o2)c1 [3’MF, 3’-methoxyflavone]
spectral change / Type I binding spectra with P450 3A4, in words (human P450 3A4 [4]): induced spectral changes
inhibition of P450 3A4 midazolam 4-hydroxylation, in words (human P450 3A4 [2]): not very effective inhibitors

C[C@@H]1O[C@@H](O[C@H]2[C@H](Oc3cc(O)c4c(c3)O[C@H](c3ccc(O)cc3)CC4=O)O[C@H](CO)[C@@H](O)[C@@H]2O)[C@H](O)[C@H](O)[C@H]1O [4’57THFvaG, 4’,5,7-trihydroxyflavanone glycoside]
inhibition of P450 1B1 EROD, in words (human P450 1B1 [5]): weak inhibitor

COc1ccc(-c2cc(=O)c3c(O)cc(O)cc3o2)cc1 [4’M57DHF, 4’-methoxy-5,7-dihydroxyflavone]
spectral change / Type I binding spectra with P450 3A4, in words (human P450 3A4 [4]): induced spectral changes
IC50 (human P450 2C9 [1]): 650 ± 130 nM
inhibition of P450 2C9 flurbiprofen 4’-hydroxylation, in words (human P450 2C9 [1]): strong inhibitors
effect on formation of 1’-hydroxymidazolam by P450 3A4, in words (human P450 3A4 [7]): slightly activated
inhibition of P450 3A4 midazolam 4-hydroxylation, in words (human P450 3A4 [2]): significantly inhibited
spectral changes with P450 2C9, in words (human P450 2C9 [8]): did not induce spectral changes

COc1ccc(-c2coc3cc(O)cc(O)c3c2=O)cc1 [4’M57DHIsoF, 4’-methoxy-5,7-dihydroxyisoflavone]
IC50 (human P450 1B1 [5]): 700 nM
pattern of inhibition of P450 1B1 (kinetic analysis) (human P450 1B1 [5]; 357THF 0.02 µM, 4’57THFva 8.0 µM, 4’M57DHisoF 8.0 µM, results not shown): mixed-type
spectral changes with P450 2C9, in words (human P450 2C9 [8]): did not induce spectral changes

COc1ccc(-c2cc(=O)c3ccccc3o2)cc1 [4’MF, 4’-methoxyflavone]
spectral change / Type I binding spectra with P450 3A4, in words (human P450 3A4 [4]): induced spectral changes
inhibition of P450 3A4 midazolam 4-hydroxylation, in words (human P450 3A4 [2]): not very effective inhibitors

O=c1cc(-c2ccccc2)oc2cccc(O)c12 [5HF, 5-hydroxyflavone]
IC50 (human P450 3A4 [2]): > 100000 nM

O=c1cc(-c2ccccc2)oc2cc(O)ccc12 [7HF, 7-hydroxyflavone]
inhibition of P450 2C9 flurbiprofen 4’-hydroxylation, in words (human P450 2C9 [1]): strong inhibitors
IC50 (human P450 3A4 [2]): > 100000 nM
spectral changes with P450 2C9, in words (human P450 2C9 [8]): did not induce spectral changes

O=c1c(O)c(-c2ccc(O)cc2)oc2cc(O)cc(O)c12 [34’57TetraHF, 3,4’,5,7-tetrahydroxyflavone]
spectral changes with P450 2C9, in words (human P450 2C9 [8]): did not induce spectral changes

O=c1c(O)c(-c2ccccc2)oc2cc(O)cc(O)c12 [357THF, 3,5,7-trihydroxyflavone]
spectral change / Type I binding spectra with P450 3A4, in words (human P450 3A4 [4]): induced spectral changes
IC50 (human P450 2C9 [1]): 200 ± 30 nM
inhibition of P450 2C9 flurbiprofen 4’-hydroxylation, in words (human P450 2C9 [1]): strong inhibitors
effect on formation of 1’-hydroxymidazolam by P450 3A4, in words (human P450 3A4 [7]): slightly activated
IC50 (human P450 3A4 [2]): 2300 ± 300 nM
inhibition of P450 3A4 midazolam 4-hydroxylation, in words (human P450 3A4 [2]): significantly inhibited
spectral changes with P450 2C9, in words (human P450 2C9 [8]): did not induce spectral changes

C#CCOc1ccccc1-c1cc(=O)c2ccc3ccccc3c2o1 [ANF2’PE, α-naphthoflavone 2’-propargyl ether]
IC50 (human P450 1A2 [9]): 240 nM

C#CCOc1ccc(-c2cc(=O)c3ccc4ccccc4c3o2)cc1 [ANF4’PE, α-naphthoflavone 4’-propargyl ether]
IC50 (human P450 1A2 [9]): 100 nM

O=c1cc(-c2ccccc2)oc2c1ccc1ccccc12 [ANF, α-naphthoflavone]
IC50 (human P450 3A4 [2]): 18000 nM
inhibition of P450 1A1 EROD, in words (human P450 1A1): strongly inhibited
spectral changes with P450 2C9, in words (human P450 2C9 [8]): did not induce spectral changes

C#CCOc1ccccc1-c1cc(=O)c2c(ccc3ccccc32)o1 [BNF2’PE, β–naphthoflavone 2’-propargyl ether]
inhibition of P450 1A2 EROD, in words (human P450 1A2 [9]): only weakly

C#CCOc1ccc(-c2cc(=O)c3c(ccc4ccccc43)o2)cc1 [BNF4’PE, β–naphthoflavone 4’-propargyl ether]
inhibition of P450 1A2 EROD, in words (human P450 1A2 [9]): only weakly

O=c1cc(-c2ccccc2)oc2ccc3ccccc3c12 [BNF, β–naphthoflavone]
IC50 (human P450 1B1 [5]): 17 nM
inhibition of P450 1A2 EROD, in words (human P450 1A2 [6]): only weakly
inhibition of P450 3A4 midazolam 4-hydroxylation, in words (human P450 3A4 [2]): not active inhibitors
inhibition of P450 1A1 EROD, in words (human P450 1A1): strongly inhibited
spectral changes with P450 2C9, in words (human P450 2C9 [8]): did not induce spectral changes

O=c1cc(-c2ccccc2)oc2ccccc12 [flavone]
spectral change / Type I binding spectra with P450 3A4, in words (human P450 3A4 [4]): Type I spectral change
ΔAmax, P450 3A4, from difference spectra (Soret band) (human P450 3A4 [4]; purified P450 3A4): 0.12 ± 0.02
IC50 (human P450 2C9 [1]): 14000 ± 1200 nM
IC50 (human P450 1A2 [6]): 130 ± 30 nM
effect on formation of 1’-hydroxymidazolam by P450 3A4, in words (human P450 3A4 [7]): enhanced the formation of 1’-hydroxymidazolam
inhibition of P450 3A4 midazolam 4-hydroxylation, in words (human P450 3A4 [2]): inhibited the formation of 4-hydroxymidazolam
IC50 (human P450 1A1): 980 ± 210 nM
spectral changes with P450 2C9, in words (human P450 2C9 [8]): did not induce spectral changes
binding spectra with P450 1B1, in words (human P450 1B1 [3]): Reverse Type I binding spectra

CC(C(=O)O)c1ccc(-c2ccccc2)c(F)c1 (stereo not drawn) [flurbiprofen]
spectral changes with P450 2C9, in words (human P450 2C9 [8]): Type I spectra
